“Also recorded” adds a separate entry of the source. Peptide text beside a SMILES is read from it. * marks the point of attachment. Cbz = O=C(OCc1ccccc1)*
Columns and labels:
Assay type in all cases: cell-based, human
MSH6 = test: MSH6-mNeonGreen reporter cell line assayed by FACS; settings: for MSH6-mNeonGreen expression after application of single compounds: single compounds at 125 nM for 6 h
Protocol: (§1) Analytical flow cytometry. For optional genomic DNA staining, 1/20 volume of Hoechst 33342 (10 mg/ml, Thermo) was added to live cells for 15 minutes at 37° C. Cells were washed in PBS, trypsinized, resuspended in media, and analyzed on a CytoFLEX (Beckman Coulter) in 96-well plate mode.

[1] = system: library of tagged HEK293T cells; test: SBP/PATTERNS protein quantification (FACS binning and tag/barcode sequencing) of drug-treated versus untreated control cells; settings: for number of proteins significantly affected, by PATTERNS: 6 hours stated for Bortezomib
Protocol: Library-scale RNP-mediated gene tagging. On day one, 18 million HEK293T NeoR-KO cells were plated per 15-cm dish into 32 dishes. On day two, 4 ml of scaled-up transfection mix (see above) were gently added per dish. On day seven, cells were trypsinized and re-plated in media containing 300 μg/ml G418 (Invivogen). The selection media was changed every 4-8 days. On day 25, the library was pre-enriched for detectable fluorescence by FACS sorting, gating on the top-30% mNeon-positive population. The library was expanded for a week and frozen for future use.
Transposition-based Tag Integration Site Sequencing (TTISS). 800,000 cells were resuspended in 80 μl direct lysis buffer (1 mM CaCl2), 3 mM MgCl2, 1 mM EDTA, 1% Triton X-100, 10 mM Tris pH 7.5, 0.2 mg/ml Proteinase K), lysed at 65° C. for 10 minutes, and kept on ice or frozen at −20° C. 25 μl 5×TAPS buffer (50 mM TAPS-NaOH pH 8.5, 25 mM MgCl2), and 21 μl transposon-loaded Tn5 (16 mg/ml, produced as described in Picelli, S. et al. Tn5 transposase and tagmentation procedures for massively scaled sequencing projects. Genome Res 24, 2033-2040, doi: 10.1101/gr.177881.114 (2014), titrated batch-wise for optimal fragment sizes) were added, mixed well, and incubated at 55° C. for 10 minutes. The reaction was mixed with 625 μl buffer PB (Qiagen) and purified using a plasmid miniprep column (Qiagen). Typical yields were 15 μg per column. The tagmentation size distribution was verified on an agarose gel to range from 200 bp to 1 kb. All DNA from a single column was used as template in a 300 μl KOD extreme hot start PCR (Roche) with primers TTISS-mNeon-fwd1 and Tn5-Loading-R2 (Table 1), 12 cycles, Ta=60° C. 6 μl of PCR reaction was used as template in a secondary 50 μl KOD extreme hot start PCR with a unique combination of barcoded primers TTISS-mNeon-fwd2-D50× and TTISS-rev2-D70x(Table 1), 20 cycles, Ta=65° C. Barcoded PCRs were pooled on ice, purified using a PCR column (Qiagen), and run on an agarose gel. Products of 250 bp-1 kb were excised, purified using a gel purification kit (Qiagen), and re-purified using a PCR column (Qiagen). Samples were quantified using a NanoDrop spectrometer and sequenced using a NextSeq High Output kit (Illumina) with 30% PhiX spike-in and the following read settings: 120 cycles read 1, 25 cycles read 2, 8 cycles index 1, and 8 cycles index 2.
Alternatively, 22 bp forward (fwd) reads and 8 bp reverse (rev) reads were aligned to 1 kb windows of the human genomic sequence (hg38) upstream of gRNA target sites not allowing mismatches, and hits were filtered to be in-frame with the annotated ORF (RefSeq). For gRNA-wise protein quantification, counts per gRNA from six adjacent sorted bins were used to calculate the weighted mean bin and variance. For UMI-based evaluation, a dictionary of UMIs was created per sequencing run by calculating a 28-bit hash of nine UMI bases together with one constant donor base and 22 target bases from successfully aligned fwd reads using the same alignment parameters as for gRNA-wise protein quantification. The hash was used to count UMI occurrences and store UMI sequence/target information in an array with typically below 10 conflicts per run. UMIs were collapsed with an edit distance of 1 in order to account for sequencing errors. The UMI dictionary was used to count bin- and UMI-wise reads using the same hash function. Counts per UMI from six adjacent sorted bins were used to calculate the weighted mean bin and variance. All software was written as interactive web tools in JavaScript and will be available through GitHub.
FACS sorting. Cells were trypsinized, washed in FluoroBrite DMEM Media (Thermo) and sorted using a Sony MA900 (where not denoted otherwise) or a MoFlo Astrios sorter (for […], SKMEL28 screens) using a 488 nm laser. Cells were collected in 1 ml growth medium and kept on ice until pelleting and lysis.
De-convolution of sorted libraries using Silent Barcode Sequencing. […]

HEK293T cells [2] = test: RNA-sequencing transcript expression, drug-treated versus untreated control cells
Protocol: RNA-seq. Whole-cell RNA was purified using an RNeasy Plus Mini Kit (Qiagen). Poly (A) mRNA was enriched using the Poly(A) mRNA Magnetic Isolation Module (NEB). Sequencing libraries were prepared using the NEBNext Ultra II Directional RNA Library Prep kit (NEB), quantified using a NanoDrop (Thermo), and sequenced on the NextSeq sequencer (Illumina). Reads were aligned to the human genome and gene expression was quantified using the online tool BrowserGenome.org (Schmid-Burgk, J. L. & Hornung, V. BrowserGenome.org: web-based RNA-seq data analysis and visualization. Nat Methods 12, 1001, doi: 10.1038/nmeth.3615 (2015)).

HEK293T cells [3] = test: TMT labeling whole proteome mass spectrometry, drug-treated versus untreated control cells
Protocol: Mass spectrometry. Cells were grown and stimulated in 10 cm dishes, washed three times in cold PBS, and scraped into 1 ml 8 M urea in water per dish. Protein content of the lysates was quantified using Pierce 660 reagent and a NanoDrop spectrometer. Samples were reduced, iodoacetamide alkylated, digested with Trypsin, labeled with 10-plex TMT (VWR cat no PI90110), and combined. After SPE clean-up and volume reduction by SpeedVac, the combined sample was run on a C18 reverse phase LC using a pH 10 A buffer, and eight fractions were collected. The volume was reduced to 20 μl by SpeedVac. Each fraction was run on an EASY nLC HPLC attached to a Thermo QE-HFX mass spectrometer in nanospray configuration using a 90 minutes acquisition time. Proteins were quantified using the MaxQuant software package.
Statistical analysis. Mass spectrometry reporter intensity data were imported into Perseus software, log-2-transformed, and filtered for missing values as well as reverse peptides or potential contaminants. Data were median-subtracted and significant outliers were determined by performing two-sided unpaired t-tests, correcting for multiple testing using an FDR=5% and s0=0.1, performing 250 randomizations. PATTERNS mean protein level bin data were processed in the same way except without the filtering and normalization steps. Volcano plots were generated using the Perseus software, and all other plots were created using custom code.

HEK293T cells [4] = test: Immunoblotting validation of predicted drug-regulated proteins; settings: time points after drug treatment
Protocol: Immunoblotting. Cells were lysed in 6-well plates in 400 μl 2×LDS buffer (Thermo) supplemented with 2×Bolt reducing agent (Thermo), heated to 95° C. for 15 minutes, and cooled on ice. 9 μl lysate was loaded per lane of Bolt 4-12% Bis-Tris Plus gels (Thermo) and run at 100 V for 1:15 h. Blotting was performed using the iBlot PVDF kit (Thermo) and program P-3 for 4 minutes. After blocking for 1 h in TBST 5% BSA, primary antibodies were bound over night at 4° C. in TBST 5% BSA. After triple washing, HRP-conjugated secondary antibodies (Cell Signaling Technology) were bound at 1:5000 dilution in TBST 5% BSA for 1 h at room temperature. Blots were imaged using Pierce ECL (Thermo) on a Chemidoc luminescence imager (Biorad). Primary antibodies used were: RBM39 clone 4G8 (Novus Biologicals), DDIT4 clone EPR18716 (Abcam), BRD2 clone D89B4 (Cell Signaling Technology), RRM2 clone 1E1 (Sigma), HRP-coupled beta-Actin clone 13E5 (Cell Signaling Technology), and cell cycle antibody cocktail (ab136810, Abcam).

[5] = system: clonal mNeon-tagged reporter cell lines; test: FACS of clonal mNeon-tagged reporter cell lines after drug stimulation
Protocol: as §1

PRKDC = test: PRKDC-mNeonGreen reporter cells assayed by FACS; settings: 125 nM, indicated time points
Protocol: as §1

[6] = drug-treated vs untreated control cells

## CCc1c(O)cc(O)c(C(=O)c2ccc(OCCN3CCOCC3)c(OC)c2)c1CC(=O)N(CCOC)CCOC.Cl [KW-2478]
MSH6
  MSH6-mNeonGreen expression after application of single compounds: downregulation

## NS(=O)(=O)c1ccc(S(=O)(=O)Nc2cccc3c(Cl)c[nH]c23)cc1 [Indisulam]
[1]; drug vs DMSO control, comparison with RBM39
  effect size of the next potentially depleted protein by SBP: −0.37 bins
[1]; drug vs DMSO control, six sorted expression bins, two replicate runs
  RBM39 effect size (change of mean protein expression bin) by SBP: −2.1 bins
[1]; drug-treated vs control tagged library
  RBM39 protein level change by SBP/PATTERNS: highly specific depletion
[1]; two replicates, FDR 5%
  significantly depleted proteins by SBP/PATTERNS (specificity): only significantly depleted protein
HEK293T cells [2]; [6]
  RBM39 RNA level: no significant change
HEK293T cells [3]; strong but not statistically significant hit
  RBM39 down-regulation by TMT whole proteome mass spectrometry: 2 fold
HEK293T cells [4]
  RBM39 depletion validated by western blot: confirmed
[5]; stimulated for six hours
  RBM39 depletion validated by FACS of a clonal reporter cell line: confirmed

## CC(C)C[C@H](NC(=O)[C@H](Cc1ccccc1)NC(=O)c1cnccn1)B(O)O [Bortezomib]
[1]; HEK293T library, 6 hours, change may be non-specific
  DDIT4 level by PATTERNS: affected
[1]; HEK293T library
  number of proteins significantly affected, by PATTERNS: 55 proteins
[1]; topmost change, not statistically significant in the SBP data
  DDIT4 level change (mean protein expression bin) by SBP: +1.6 bins
HEK293T cells [2]; [6]
  DDIT4 identification as target by RNA-Seq: could not identify
HEK293T cells [2]; of the 55 PATTERNS hits
  PATTERNS hits regulated at the transcript level (RNA-sequencing): only GADD45B
HEK293T cells [3]; [6]
  DDIT4 quantification by quantitative mass spectrometry: failed to quantify
HEK293T cells [3]; drug-treated vs untreated control cells, triplicate
  outlier / upregulated proteins by TMT whole proteome mass spectrometry: ATF3 and JUN; also recorded: two upregulated proteins
HEK293T cells [4]
  DDIT4 increase validated by western blot: confirmed
  PATTERNS hits DDIT4, ID1, ID2 and JUN validated by western blot: confirmed
[5]
  PATTERNS hits DDIT4, ID1, ID2 and JUN validated by FACS of reporter cell lines: confirmed
[5]; stimulated for six hours
  DDIT4 regulation in clonal mNeon-tagged reporter cell line by FACS: confirmed

## CC1(C)CC(=O)c2c(C(F)(F)F)nn(-c3ccc(C(N)=O)c(N[C@H]4CC[C@H](O)CC4)c3)c2C1 [SNX2112, SNX-2112]
MSH6; 125 nM, indicated time points
  kinetics of the reduction of MSH6 levels: significant depletion in MSH6 levels in under two hours
MSH6
  MSH6-mNeonGreen expression after application of single compounds: downregulation
PRKDC
  kinetics of the reduction of PRKDC levels: also observed

## Cc1ncsc1-c1ccc(CNC(=O)[C@@H]2C[C@@H](O)CN2C(=O)[C@@H](NC(=O)COCCOCCOCCNC(=O)C[C@@H]2N=C(c3ccc(Cl)cc3)c3c(sc(C)c3C)-n3c(C)nnc32)C(C)(C)C)cc1 [MZ-1]
[1]; HEK293T library
  BRD protein family members degraded, by PATTERNS: degradation of two BRD protein family members, BRD2 and BRD3
  number of proteins significantly affected, by PATTERNS: 20 proteins
[1]; drug vs DMSO control
  BRD2 protein level change by SBP: significant decrease
HEK293T cells [2]; [6]
  BRD2 identification by RNA-Seq: could not be identified
HEK293T cells [3]; BRD4 not represented in the SBP library
  BRD4 in mass spectrometry analysis: not statistically significant hit
HEK293T cells [3]; strong albeit not statistically significant hit
  BRD2 down-regulation by mass spectrometry: 2.3 fold
HEK293T cells [4]
  BRD2 decrease validated by western blot: confirmed
[5]; stimulated for six hours
  BRD2 decrease validated by FACS of clonal reporter cell line: confirmed

## CC(C)C[C@@H](C=O)NC(=O)[C@H](CC(C)C)NC(=O)[C@H](CC(C)C)NC(=O)OCc1ccccc1 [MG-132] (Cbz-Leu-Leu-Leu-aldehyde)
[5]; stimulated for six hours
  DDIT4 regulation in clonal mNeon-tagged reporter cell line by FACS: regulated

## CC1(C)CC(=O)c2c(C(F)(F)F)nn(-c3ccc(C(N)=O)c(N[C@H]4CC[C@H](OC(=O)CN)CC4)c3)c2C1 [SNX-5422]
MSH6
  MSH6-mNeonGreen expression after application of single compounds: downregulation

— patent publication US12281301B2, “Sequencing-based proteomics” (THE BROAD INSTITUTE, INC., priority 2018, dated 2025)
